The target of this assay is T1, catalytic domain of human Bub1 (amino acids 704-1085) (Homo sapiens, UniProt O43683).
T1 construct: catalytic domain of human Bub1 (amino acids 704-1085); His6 (N); made in house; host or cells: Hi5 insect cells
The assay can be described thus: Bub1 kinase assay (TR-FRET). The format is biochemical. To be noted: TR-FRET; ATP 10 μM, peptide substrate 1 μM; 60 min at 22° C.; average or median if tested more than once; read-out: Inhibition of Bub1 kinase IC50. The source says: Bub1-inhibitory activities of compounds described in the present invention were quantified using a time-resolved fluorescence energy transfer (TR-FRET) kinase assay which measures phosphorylation of the synthetic peptide Biotin-Ahx-VLLPKKSFAEPG (C-terminus in amide form), purchased from e.g. Biosyntan (Berlin, Germany) by the (recombinant) catalytic domain of human Bub1 (amino acids 704-1085), expressed in Hi5 insect cells with an N-terminal His6-tag and purified by affinity—(Ni-NTA) and size exclusion chromatography.
In a typical assay 11 different concentrations of each compound (0.1 nM, 0.33 nM, 1.1 nM, 3.8 nM, 13 nM, 44 nM, 0.15 μM, 0.51 μM, 1.7 μM, 5.9 μM and 20 μM) were tested in duplicate within the same microtiter plate. To this end, 100-fold concentrated compound solutions (in DMSO) were previously prepared by serial dilution (1:3.4) of 2 mM stocks in a clear low volume 384-well source microtiter plate (Greiner Bio-One, Frickenhausen, Germany), from which 50 nl of compounds were transferred into a black low volume test microtiter plate from the same supplier. Subsequently, 2 μL of Bub1 (the final concentration of Bub1 was adjusted depending on the activity of the enzyme lot in order to be within the linear dynamic range of the assay: typically ˜200 ng/mL were used) in aqueous assay buffer [50 mM Tris/HCl pH 7.5, 10 mM magnesium chloride (MgCl2), 200 mM potassium chloride (KCl), 1.0 mM dithiothreitol (DTT), 0.1 mM sodium ortho-vanadate, 1% (v/v) glycerol, 0.01% (w/v) bovine serum albumine (BSA), 0.005% (v/v) Trition X-100 (Sigma), 1× Complete EDTA-free protease inhibitor mixture (Roche)] were added to the compounds in the test plate and the mixture was incubated for 15 min at 22° C. to allow pre-equilibration of the putative enzyme-inhibitor complexes before the start of the kinase reaction, which was initiated by the addition of 3 μL 1.67-fold concentrated solution (in assay buffer) of adenosine-tri-phosphate (ATP, 10 μM final concentration) and peptide substrate (1 μM final concentration). The resulting mixture (5 μL final volume) was incubated at 22° C. during 60 min., and the reaction was stopped by the addition of 5 μL of an aqueous EDTA-solution (50 mM EDTA, in 100 mM HEPES pH 7.5 and 0.2% (w/v) bovine serum albumin) which also contained the TR-FRET detection reagents (0.2 μM streptavidin-XL665 [Cisbio Bioassays, Codolet, France] and 1 nM anti-phospho-Serine antibody [Merck Millipore, cat. #35-002] and 0.4 nM LANCE EU-W1024 labeled anti-mouse IgG antibody [Perkin-Elmer, product no. AD0077, alternatively a Terbium-cryptate-labeled anti-mouse IgG antibody from Cisbio Bioassays can be used]). The stopped reaction mixture was further incubated 1 h at 22° C. in order to allow the formation of complexes between peptides and detection reagents. Subsequently, the amount of product was evaluated by measurement of the resonance energy transfer from the Eu-chelate-antibody complex recognizing the Phosphoserine residue to the streptavidin-XL665 bound to the biotin moiety of the peptide. To this end, the fluorescence emissions at 620 nm and 665 nm after excitation at 330-350 nm were measured in a TR-FRET plate reader, e.g. a Rubystar or Pherastar (both from BMG Labtechnologies, Offenburg, Germany) or a Viewlux (Perkin-Elmer) and the ratio of the emissions (665 nm/[…]) was taken as indicator for the amount of phosphorylated substrate. The data were normalised using two sets of control wells for high—(=enzyme reaction without inhibitor=0%=Minimum inhibition) and low—(=all assay components without enzyme=100%=Maximum inhibition) Bub1 activity. IC50 values were calculated by fitting the normalized inhibition data to a 4-parameter logistic equation (Minimum, Maximum, IC50, Hill; Y=Max+(Min−Max)/(1+(X/IC50)Hill)).

In general, IC50 refers to the concentration that gives 50% inhibition.

T1 sequence (O43683 704-1085): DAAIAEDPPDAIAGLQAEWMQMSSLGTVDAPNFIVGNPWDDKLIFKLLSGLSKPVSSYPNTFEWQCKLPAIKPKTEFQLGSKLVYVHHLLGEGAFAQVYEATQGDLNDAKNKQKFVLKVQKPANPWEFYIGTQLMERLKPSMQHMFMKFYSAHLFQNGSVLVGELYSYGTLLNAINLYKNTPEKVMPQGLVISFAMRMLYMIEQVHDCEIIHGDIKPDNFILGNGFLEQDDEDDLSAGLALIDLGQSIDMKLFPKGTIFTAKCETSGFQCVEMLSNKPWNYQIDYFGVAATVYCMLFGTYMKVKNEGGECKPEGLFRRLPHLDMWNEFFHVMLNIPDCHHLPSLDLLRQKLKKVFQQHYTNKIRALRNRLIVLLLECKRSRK

On to `COC(=O)N1CC(=O)c2c([nH]c(-c3ccncc3OCC3CC3)c2Nc2ccccc2)C1` [Example 250, Methyl 2-[3-(cyclopropylmethoxy)pyridin-4-yl]-4-oxo-3-(phenylamino)-1,4,5,7-tetrahydro-6H-pyrrolo[2,3-c]pyridine-6-carboxylate], for which the IC50 is 9 nM.
The value for `COc1cnccc1-c1[nH]c2c(c1Nc1ccccc1)C(=O)CN(S(C)(=O)=O)C2` [Example 107, 2-(3-Methoxypyridin-4-yl)-6(methylsulfonyl)-3-(phenylamino)-1,5,6,7-tetrahydro-4H-pyrrolo[2,3-c]pyridin-4-one] was 6 nM; that for `CC(C)(C)OC(=O)N1CC(=O)c2c([nH]c(-c3ccnc(NC(=O)C4(F)CC4)c3)c2Nc2ccccc2)C1` [Example 131, tert-Butyl 3-anilino-2-{2-([(1-fluorocyclopropyl)carbonyl]amino}pyridin-4-yl)-4-oxo-1,4,5,7-tetrahydro-6H-pyrrolo[2,3-c]pyridine-6-carboxylate] was 23 nM; that for `CC(C)OC(=O)N1CC(=O)c2c([nH]c(-c3ccnc(NC(=O)c4cncs4)c3)c2Nc2ccccc2)C1` [Example 156, Isopropyl 3-anilino-4-oxo-2-{2-[(1,3-thiazol-5-ylcarbonyl)amino]pyridin-4-yl}-1,4,5,7-tetrahydro-6H-pyrrolo[2,3-c]pyridine-6-carboxylate] was 12 nM.
On to `CC(C)OC(=O)N1CC(=O)c2c([nH]c(-c3ccnc(NC(=O)[C@@H]4C[C@@H]4F)c3)c2Nc2ccccc2)C1` [Example 216, Propan-2-yl 2-[2-([(1S,2S)-2-fluorocyclopropyl]carbonylamino)pyridin-4-yl]-4-oxo-3-(phenylamino)-1,4,5,7-tetrahydro-6H-pyrrolo[2,3-c]pyridine-6-carboxylate], for which the concentration for half-maximal inhibition (IC50) was found to be 6 nM.
For `Cc1ccc(F)cc1C(=O)Nc1cc(-c2[nH]c3c(c2Nc2ccccc2)C(=O)CNC3)ccn1` [Example 269, 5-Fluoro-2-methyl-N-4-[4-oxo-3-(phenylamino)-4,5,6,7-tetrahydro-1H-pyrrolo[2,3-c]pyridin-2-yl]pyridin-2-ylbenzamide], the IC50 was 149 nM.
`COCCOc1cnccc1-c1[nH]c2c(c1Nc1ccccc1)C(=O)CN(C(C)=O)C2` [Example 230, 6-Acetyl-2-[3-(2-methoxyethoxy)pyridin-4-yl]-3-(phenylamino)-1,5,6,7-tetrahydro-4H-pyrrolo[2,3-c]pyridin-4-one]: the IC50 is 16 nM.
For `CC(C)(C)OC(=O)N1CC(=O)c2c([nH]c(-c3ccnc(NC(=O)[C@H]4C[C@H]4F)c3)c2Nc2ccccc2)C1` [Example 128, tert-Butyl 3-anilino-2-[2-({[(1R,2R)-2-fluorocyclopropyl]carbonyl}amino)pyridin-4-yl]-4-oxo-1,4,5,7-tetrahydro-6H-pyrrolo[2,3-c]pyridine-6-carboxylate], the IC50 was found to be 8 nM.
As for `O=C1CN(C(=O)c2ccncc2)Cc2[nH]c(-c3ccnc(NC(=O)[C@@H]4C[C@@H]4F)c3)c(Nc3ccccc3)c21` [Example 200, (1S,2S)-2-Fluoro-N-4-[4-oxo-3-(phenylamino)-6-(pyridin-4-ylcarbonyl)-4,5,6,7-tetrahydro-1H-pyrrolo[2,3-c]pyridin-2-yl]pyridin-2-ylcyclopropanecarboxamide], the IC50 came to 7 nM.
On to `COC(=O)N1CC(=O)c2c([nH]c(-c3ccncc3OCC(F)(F)F)c2Nc2ccccc2)C1` [Example 242, Methyl 4-oxo-3-(phenylamino)-2-[3-(2,2,2-trifluoroethoxy)pyridin-4-yl]-1,4,5,7-tetrahydro-6H-pyrrolo[2,3-c]pyridine-6-carboxylate], for which the IC50 came out at 57 nM.
Then `CC(=O)Nc1cc(-c2[nH]c3c(c2Nc2ccccc2)C(=O)CN(C(=O)N2CCCCC2)C3)ccn1` [Example 166, N-{4-[3-Anilino-4-oxo-6-(piperidin-1-ylcarbonyl)-4,5,6,7-tetrahydro-1H-pyrrolo[2,3-c]pyridin-2-yl]pyridin-2-yl}acetamide], with 3 nM.
Then `CC(=O)Nc1cc(-c2[nH]c3c(c2Nc2ccccc2)C(=O)CN(S(=O)(=O)N(C)C)C3)ccn1` [Example 254, N-4-[6(Dimethylsulfamoyl)-4-oxo-3-(phenylamino)-4,5,6,7-tetrahydro-1H-pyrrolo[2,3-c]pyridin-2-yl]pyridin-2-ylacetamide], with 4 nM.
Regarding `Cc1cnccc1-c1[nH]c2c(c1Nc1ccccc1)C(=O)CN(C(=O)OC(C)(C)C)C2` [Example 99, tert-Butyl 2-(3-methylpyridin-4-yl)-4-oxo-3-(phenylamino)-1,4,5,7-tetrahydro-6H-pyrrolo[2,3-c]pyridine-6-carboxylate], the IC50 stood at 205 nM.
For the molecule `O=C(Nc1cc(-c2[nH]c3c(c2Nc2ccccc2)C(=O)COC3)ccn1)c1ccc(F)c(F)c1` [Example 154, N-[4-(3-Anilino-4-oxo-1,4,5,7-tetrahydropyrano[3,4-b]pyrrol-2-yl)pyridin-2-yl]-3,4-difluorobenzamide], the IC50 was 19 nM.
For `O=C(Nc1cc(-c2[nH]c3c(c2Nc2ccccc2)C(=O)COC3)ccn1)NC1CC1` [Example 55, 1-Cyclopropyl-3-{4-[4-oxo-3-(phenylamino)-1,4,5,7-tetrahydropyrano[3,4-b]pyrrol-2-yl]pyridin-2-yl}urea], the IC50 came out at 98 nM.
The value for `O=C1COCc2[nH]c(-c3ccncc3)c(Nc3ccccc3)c21` [Example 6, 3-(phenylamino)-2-(pyridin-4-yl)-1,7-dihydropyrano[3,4-b]pyrrol-4(5H)-one] was 42 nM; that for `CC(C)(C)OC(=O)N1CC(=O)c2c([nH]c(-c3ccncc3OCC3CC3)c2Nc2ccccc2)C1` [Example 223, tert-Butyl 3-anilino-2-[3-(cyclopropylmethoxy)pyridin-4-yl]-4-oxo-1,4,5,7-tetrahydro-6H-pyrrolo[2,3-c]pyridine-6-carboxylate] was 14 nM; that for `CC(=O)N1CC(=O)c2c([nH]c(-c3ccncc3OCCN(C)C)c2Nc2ccccc2)C1` [Example 278, 6-Acetyl-2-3-[2-(dimethylamino)ethoxy]pyridin-4-yl-3-(phenylamino)-1,5,6,7-tetrahydro-4H-pyrrolo[2,3-c]pyridin-4-one] was 23 nM.
Regarding `COc1ccc(C(=O)Nc2cc(-c3[nH]c4c(c3Nc3ccccc3)C(=O)CN(C(=O)N3CCOCC3)C4)ccn2)cc1F` [Example 291, 3-Fluoro-4-methoxy-N-4-[6-(morpholin-4-ylcarbonyl)-4-oxo-3-(phenylamino)-4,5,6,7-tetrahydro-1H-pyrrolo[2,3-c]pyridin-2-yl]pyridin-2-ylbenzamide], the IC50 was found to be 6 nM.
For `CC(=O)Nc1cc(-c2[nH]c3c(c2Nc2ccccc2)C(=O)CN(C(=O)c2ccncc2)C3)ccn1` [Example 116, N-{4-[4-Oxo-3-(phenylamino)-6-(pyridin-4-ylcarbonyl)-4,5,6,7-tetrahydro-1H-pyrrolo[2,3-c]pyridin-2-yl]pyridin-2-yl}acetamide], the IC50 worked out at 26 nM.
Consider `CCNC(=O)N1CC(=O)c2c([nH]c(-c3ccnc(NC(=O)[C@@H]4C[C@@H]4F)c3)c2Nc2ccccc2)C1` [Example 208, N-Ethyl-2-[2-([(1S,2S)-2-fluorocyclopropyl]carbonylamino)pyridin-4-yl]-4-oxo-3-(phenylamino)-1,4,5,7-tetrahydro-6H-pyrrolo[2,3-c]pyridine-6-carboxamide], for which the half-inhibitory concentration (IC50) turned out to be 5 nM.

These data come from patent US20200216439A1, “HETERO-1,5,6,7-TETRAHYDRO-4H-INDOL-4-ONES” (BAYER PHARMA AKTIENGESELLSCHAFT, priority 2015, published 2020).
